Results: patent US9365508B2, “Aroyl thiourea derivatives” (University Court of the University of St Andrews, priority 2009, dated 2016)
Counter-ions that a name gives are not always drawn.

How the values were obtained:
SIRT2 = SIRT2 (Homo sapiens (Human), UniProt Q8IXJ6); assay: SIRT2 inhibition assay (Fluor de Lys fluorescence-based assay kit); format: biochemical; settings: human recombinant enzyme; for inhibition at 60 µM: read-out: SirT2 (% inhib at 60 μM)
Method: (§1) SIRT1 and SIRT2 Inhibition Assays
(§2) All compounds were tested for inhibition of SIRT1 and SIRT2 using human recombinant enzymes available in the Fluor de Lys fluorescence-based assay kit (BIOMOL, AK555, AK556). All other required reagents were provided in the kit which was stored at −78° C. Before use, small aliquots of each enzyme (2-3 μL) were prepared, snap frozen in liquid nitrogen and stored at −78° C. Fresh dilutions of compounds were prepared in DMSO and further diluted in assay buffer. NAD^+ (12.5 […] at 4 mM) and Fluor de Lys SIRT1 or SIRT2 (12.5 μL at 100 μM) in assay buffer were added to a white 96 well plate, followed by compound (10 μL) and lastly enzyme (15 μL, 0.07 U/μL or SIRT1 and 0.3 U/μL for SIRT2). After incubation for 1 h at 37° C. a developer solution (50 μL) was added to each reaction. The developer solution contained 38 μL buffer, 10 μL developer and 2 μL nicotinamide (50 mM) per reaction. The plate was then incubated for 45 min at rt and then read using a Spectra Max Gemini fluorimeter with an excitation wavelength of 355 nm and an emission wavelength of 460 nm. SigmaPlot software was used to generate fit curves for raw plots and the equation for each curve was used to calculate IC50 data.

SIRT1 = SIRT1 (Homo sapiens (Human), UniProt Q96EB6); assay: SIRT1 inhibition assay (Fluor de Lys fluorescence-based assay kit); format: biochemical; settings: human recombinant enzyme; for inhibition at 60 µM: read-out: SirT1 (% inhib at 60 μM)
Method: as §1, §2

SIRT2, sequence (Q8IXJ6 whole entry): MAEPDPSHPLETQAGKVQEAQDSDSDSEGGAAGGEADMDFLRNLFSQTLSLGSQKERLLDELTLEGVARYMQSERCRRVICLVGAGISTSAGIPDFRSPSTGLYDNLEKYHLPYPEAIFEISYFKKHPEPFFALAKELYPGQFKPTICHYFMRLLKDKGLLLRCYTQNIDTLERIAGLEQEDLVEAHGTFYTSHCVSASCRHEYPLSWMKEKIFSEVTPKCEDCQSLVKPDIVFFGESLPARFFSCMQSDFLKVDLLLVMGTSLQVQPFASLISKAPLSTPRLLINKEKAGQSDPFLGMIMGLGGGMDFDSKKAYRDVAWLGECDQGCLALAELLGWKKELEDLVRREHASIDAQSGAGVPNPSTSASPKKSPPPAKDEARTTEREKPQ
SIRT1, sequence (Q96EB6 whole entry): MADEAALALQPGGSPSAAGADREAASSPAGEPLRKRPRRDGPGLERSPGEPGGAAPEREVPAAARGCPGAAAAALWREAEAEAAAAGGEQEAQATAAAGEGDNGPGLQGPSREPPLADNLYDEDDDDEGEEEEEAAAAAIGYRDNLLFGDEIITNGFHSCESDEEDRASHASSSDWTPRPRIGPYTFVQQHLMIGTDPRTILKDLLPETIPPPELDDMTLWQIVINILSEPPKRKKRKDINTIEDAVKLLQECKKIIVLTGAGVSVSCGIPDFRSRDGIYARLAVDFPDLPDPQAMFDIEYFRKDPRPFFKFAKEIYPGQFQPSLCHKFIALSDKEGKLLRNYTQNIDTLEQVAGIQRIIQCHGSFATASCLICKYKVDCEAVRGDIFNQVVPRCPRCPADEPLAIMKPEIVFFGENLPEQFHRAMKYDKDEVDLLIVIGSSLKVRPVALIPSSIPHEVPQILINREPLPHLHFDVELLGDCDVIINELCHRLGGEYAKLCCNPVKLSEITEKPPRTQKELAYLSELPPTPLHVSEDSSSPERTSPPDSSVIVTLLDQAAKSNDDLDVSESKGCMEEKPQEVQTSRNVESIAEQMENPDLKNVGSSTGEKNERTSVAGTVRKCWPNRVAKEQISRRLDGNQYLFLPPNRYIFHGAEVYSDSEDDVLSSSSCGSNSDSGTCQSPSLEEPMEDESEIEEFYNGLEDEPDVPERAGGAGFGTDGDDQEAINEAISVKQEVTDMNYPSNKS

Row | inhibition at 60 µM (SIRT2; 60 μM compound) [%] | inhibition at 60 µM (SIRT1; 60 μM compound) [%] | IC50 (SIRT2) [µM] | IC50 (SIRT1) [µM] | SirT2 (% inhib at 60 μM) (SIRT2; 60 μM compound) [%] | SirT1 (% inhib at 60 μM) (SIRT1; 60 μM compound) [%] | SMILES
1 | 49.9 | 23.3 | – | – | – | – | CN(C)CCCCC(=O)Nc1ccc(NC(=S)NC(=O)c2cc(Cl)cc(Cl)c2)cc1 [Compound 360a, 5-Dimethylamino-pentanoic acid {4-[3-(3,5-dichloro-benzoyl)-thioureido]-phenyl}-amide hydrochloride]
2 | 91.1 | 93.5 | 4.6 ± 0.6 | 18.3 ± 0.3 | – | – | CN(C)CCCCC(=O)Nc1ccc(NC(=S)NC(=O)c2ccc(C(C)(C)C)c(Br)c2)cc1 [Compound 361a, 5-Dimethylamino-pentanoic acid {4-[3-(3-bromo-4-tert-butyl-benzoyl)-thioureido]-phenyl}-amide hydrochloride]
3 | 77.1 | 24 | 34.3 ± 7.2 | 69.6 ± 0.6 | – | – | Cc1cc(C(=O)NC(=S)Nc2ccc(NC(=O)CCCCN(C)C)cc2)ccc1Br [Compound C5, 5-Dimethylamino-pentanoic acid {4-[3-(4-bromo-3-methyl-benzoyl)-thioureido]-phenyl}-amide hydrochloride]
4 | 89 | 82.4 | – | – | – | – | CCCc1ccc(C(=O)NC(=S)Nc2ccc(NC(=O)CCCCN(C)C)cc2)cc1 [Compound 345c, 5-Dimethylamino-pentanoic acid {4-[3-(4-propyl-benzoyl)-thioureido]-phenyl}-amide hydrochloride]
5 | 20.9 | 5 | – | – | – | – | Cc1cccc(C(=O)NC(=S)Nc2ccc(NC(=O)CCCCN(C)C)cc2)c1 [Compound B1, 5-Dimethylamino-pentanoic acid {4-[3-(3-methyl-benzoyl)-thioureido]-phenyl}-amide]
6 | 85.4 | 73 | – | – | – | – | CCCCCc1ccc(C(=O)NC(=S)Nc2ccc(NC(=O)CCCCN(C)C)cc2)cc1 [Compound 345a, 5-Dimethylamino-pentanoic acid {4-[3-(4-pentyl-benzoyl)-thioureido]-phenyl}-amide hydrochloride]
7 | 90 | 56.3 | – | – | – | – | CCCCc1ccc(C(=O)NC(=S)Nc2ccc(NC(=O)CCCCN(C)C)cc2)cc1 [Compound 345b, 5-Dimethylamino-pentanoic acid {4-[3-(4-butyl-benzoyl)-thioureido]-phenyl}-amide hydrochloride]
8 | 37.8 | 9 | – | – | – | – | COc1ccc(C(=O)NC(=S)Nc2ccc(NC(=O)CCCCN(C)C)cc2)cc1Cl [Compound 350a, 5-Dimethylamino-pentanoic acid {4-[3-(3-chloro-4-methoxy-benzoyl)-thioureido]-phenyl}-amide hydrochloride]
9 | 54.3 | 29.3 | – | – | – | – | CN(C)CCCCC(=O)Nc1ccc(NC(=S)NC(=O)c2ccccc2Cl)cc1 [Compound A2, 5-Dimethylamino-pentanoic acid {4-[3-(2-chloro-benzoyl)-thioureido]-phenyl}-amide hydrochloride]
10 | 57.9 | 29.2 | – | – | – | – | CN(C)CCCCC(=O)Nc1ccc(NC(=S)NC(=O)c2cccc(Cl)c2)cc1 [Compound A5, 5-Dimethylamino-pentanoic acid {4-[3-(3-chloro-benzoyl)-thioureido]-phenyl}-amide hydrochloride]
11 | 57.1 | 9.1 | – | – | – | – | CCc1ccc(C(=O)NC(=S)Nc2ccc(NC(=O)CCCCN(C)C)cc2)cc1 [Compound 345d, 5-Dimethylamino-pentanoic acid {4-[3-(4-ethyl-benzoyl)-thioureido]-phenyl}-amide hydrochloride]
12 | – | – | 14 ± 1.7 | 47.2 ± 0.9 | – | – | COc1c(Br)cc(C(=O)NC(=S)Nc2ccc(NC(=O)CCCCN(C)C)cc2)cc1Br [Compound 383a, 5-Dimethylamino-pentanoic acid {4-[3-(3,5-dibromo-4-methoxy-benzoyl)-thioureido]-phenyl}-amide hydrochloride]
13 | 68 | 8 | 31.9 ± 6.4 | 70.9 ± 4.2 | – | – | CN(C)CCCCC(=O)Nc1ccc(NC(=S)NC(=O)c2ccc(Cl)c(Cl)c2)cc1 [Compound 311d, 5-Dimethylamino-pentanoic acid {4-[3-(3,4-dichloro-benzoyl)-thioureido]-phenyl}-amide hydrochloride]
14 | 78.4 | 52.9 | 32.5 ± 0.07 | 64.8 ± 3.8 | – | – | CC(C)c1ccc(C(=O)NC(=S)Nc2ccc(NC(=O)CCCCN(C)C)cc2)cc1 [Compound 331a, 5-Dimethylamino-pentanoic acid {4-[3-(4-isopropyl-benzoyl)-thioureido]-phenyl}-amide hydrochloride]
15 | 30.5 | 25.3 | – | – | – | – | COc1cccc(C(=O)NC(=S)Nc2ccc(NC(=O)CCCCN(C)C)cc2)c1 [Compound B2, 5-Dimethylamino-pentanoic acid {4-[3-(3-methoxy-benzoyl)-thioureido]-phenyl}-amide hydrochloride]
16 | 80.2 | 33 | 31.9 ± 1.6 | 43.9 ± 7.3 | – | – | Cc1ccc(C(=O)NC(=S)Nc2ccc(NC(=O)CCCCN(C)C)cc2)cc1Br [Compound 330a, 5-Dimethylamino-pentanoic acid {4-[3-(3-bromo-4-methyl-benzoyl)-thioureido]-phenyl}-amide hydrochloride]
17 | 61.5 | 55.7 | – | – | – | – | CN(C)CCCCC(=O)Nc1ccc(NC(=S)NC(=O)c2ccc(N(C)C)cc2)cc1 [Compound 332a, 5-Dimethylamino-pentanoic acid {4-[3-(4-dimethylamino-benzoyl)-thioureido]-phenyl}-amide hydrochloride]
18 | 18 | – | – | – | – | – | COc1cc(C(=O)NC(=S)Nc2ccc(NC(=O)CCCCN(C)C)cc2)cc(OC)c1OC [Compound D2, 5-Dimethylamino-pentanoic acid {4-[3-(3,4,5-trimethoxy-benzoyl)-thioureido]-phenyl}-amide hydrochloride]
19 | 51 | 48 | – | – | – | – | COc1ccc(C(=O)NC(=S)Nc2ccc(NC(=O)CCCCN(C)C)cc2)cc1 [318a A3, 5-Dimethylamino-pentanoic acid {4-[3-(4-methoxy-benzoyl)-thioureido]-phenyl}-amide hydrochloride]
20 | 65.1 | 27.5 | – | – | – | – | Cc1ccc(C(=O)NC(=S)Nc2ccc(NC(=O)CCCCN(C)C)cc2)cc1C [Compound C4, 5-Dimethylamino-pentanoic acid {4-[3-(3,4-dimethyl-benzoyl)-thioureido]-phenyl}-amide hydrochloride]
21 | 66.8 | 48.7 | – | – | – | – | COc1ccccc1C(=O)NC(=S)Nc1ccc(NC(=O)CCCCN(C)C)cc1 [Compound A3, 5-Dimethylamino-pentanoic acid {4-[3-(2-methoxy-benzoyl)-thioureido]-phenyl}-amide hydrochloride]
22 | 48.5 | 10 | 80.7 ± 14.4 | > 90 | – | – | Cc1ccccc1C(=O)NC(=S)Nc1ccc(NC(=O)CCCCN(C)C)cc1 [Compound A1, 5-Dimethylamino-pentanoic acid {4-[3-(2-methyl-benzoyl)-thioureido]-phenyl}-amide hydrochloride]
23 | 29.5 | 58.3 | > 90 | 51.7 ± 6.9 | – | – | COc1ccc(C(=O)NC(=S)Nc2ccc(NC(=O)CCCCN(C)C)cc2)cc1C(F)(F)F [Compound C6, 5-Dimethylamino-pentanoic acid {4-[3-(4-methoxy-3-trifluoromethyl-benzoyl)-thioureido]-phenyl}-amide hydrochloride]
24 | 81 | 70.5 | 21.2 ± 7.2 | 39.9 ± 8.1 | – | – | CN(C)CCCCC(=O)Nc1ccc(NC(=S)NC(=O)c2cccc(Br)c2)cc1 [Compound A6, 5-Dimethylamino-pentanoic acid {4-[3-(3-bromo-benzoyl)-thioureido]-phenyl}-amide hydrochloride]
25 | 47.7 | 13.5 | 39.5 ± 9.7 | 62.1 ± 2.3 | – | – | CN(C)CCCCC(=O)Nc1ccc(NC(=S)NC(=O)c2ccc(Br)cc2)cc1 [Compound B5, 5-Dimethylamino-pentanoic acid {4-[3-(4-bromo-benzoyl)-thioureido]-phenyl}-amide hydrochloride]
26 | – | – | – | – | 17.1 | 10.9 | CN(C)CCCCC(=O)Nc1ccc(NC(=S)NC(=O)c2ccc(C(F)(F)F)cc2)cc1.Cl [Compound B6]
27 | 61 | 53 | – | – | – | – | CN(C)CCCCC(=O)Nc1ccc(NC(=S)NC(=O)c2ccc(Cl)cc2)cc1 [318a A1, 5-Dimethylamino-pentanoic acid {4-[3-(4-chloro-benzoyl)-thioureido]-phenyl}-amide hydrochloride]
28 | 46 | 7.5 | 52.5 ± 12.3 | > 90 | – | – | CN(C)CCCCC(=O)Nc1ccc(NC(=S)NC(=O)c2cc(F)c(F)c(F)c2)cc1 [Compound D1, 5-Dimethylamino-pentanoic acid {4-[3-(3,4,5-trifluoro-benzoyl)-thioureido]-phenyl}-amide hydrochloride]
